Broadly, the IC50 is the concentration at which inhibition is half-maximal.

One assay deals with T1, mTOR (Homo sapiens, UniProt P42345).
T1 construct: Jurkat cells were homogenized in a Potter S homogenizer in lysis buffer; endogenous in cells; host or cells: Jurkat, clone E6-1 (ATCC TIB-152) lysate
Description: mTOR kinobeads assay (Jurkat cell lysate, dot blot detection). Type of assay: binding. The following applies: read-out: Inhibition values (IC50) mTor. A digest of the protocol: (§1)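 Jurkat lysate, 5 mg/ml protein, 3 h cold-room incubation with test compound (9-step 1:3 series) and immobilized-ligand affinity beads. Wash, SDS elution, dot blot with specific antibody, Odyssey infrared read. IC50 fitted per kinase.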

For the next assay, the target named is T2, PI3K alpha (PI3Kα) (Homo sapiens, UniProt P42336).
T2 construct: Jurkat cells were homogenized in a Potter S homogenizer in lysis buffer; endogenous in cells; host or cells: Jurkat, clone E6-1 (ATCC TIB-152) lysate
Briefly: kinobeads assay, PI3K alpha. Type of assay: binding. The following applies: Jurkat cell lysate, read-out: Inhibition values (IC50) PI3Ka. A digest of the protocol:
as §1

The next assay deals with T3, PI3K beta (PI3Kb) (Homo sapiens, UniProt P42338).
T3 construct: Jurkat cells were homogenized in a Potter S homogenizer in lysis buffer; endogenous in cells; host or cells: Jurkat, clone E6-1 (ATCC TIB-152) lysate
Description: kinobeads assay, PI3K beta. Type of assay: binding. The following applies: Jurkat cell lysate, read-out: Inhibition values (IC50) PI3Kb. The method, boiled down:
as §1

A further assay addresses T4, PI3K gamma (PI3Kg) (Homo sapiens, UniProt P48736).
T4 construct: Jurkat cells were homogenized in a Potter S homogenizer in lysis buffer; endogenous in cells; host or cells: Jurkat, clone E6-1 (ATCC TIB-152) lysate
Description: kinobeads assay, PI3K gamma. The class given is binding. The following applies: Jurkat cell lysate, read-out: Inhibition values (IC50) PI3Kg. The method, boiled down: as §1

The target of a further assay is T5, PI3K delta (PI3Kd) (Homo sapiens, UniProt O00329).
T5 construct: Jurkat cells were homogenized in a Potter S homogenizer in lysis buffer; endogenous in cells; host or cells: Jurkat, clone E6-1 (ATCC TIB-152) lysate
Briefly: kinobeads assay, PI3K delta. The following applies: Jurkat cell lysate, read-out: Inhibition values (IC50) PI3Kd. The class given is binding. The method, boiled down: as §1

The target of assay [1] is T6, DNA-dependent protein kinase (DNA-PK) (Homo sapiens, UniProt P78527).
T6 construct: Jurkat cells were homogenized in a Potter S homogenizer in lysis buffer; endogenous in cells; host or cells: Jurkat, clone E6-1 (ATCC TIB-152) lysate
T6 sequence (P78527 whole entry): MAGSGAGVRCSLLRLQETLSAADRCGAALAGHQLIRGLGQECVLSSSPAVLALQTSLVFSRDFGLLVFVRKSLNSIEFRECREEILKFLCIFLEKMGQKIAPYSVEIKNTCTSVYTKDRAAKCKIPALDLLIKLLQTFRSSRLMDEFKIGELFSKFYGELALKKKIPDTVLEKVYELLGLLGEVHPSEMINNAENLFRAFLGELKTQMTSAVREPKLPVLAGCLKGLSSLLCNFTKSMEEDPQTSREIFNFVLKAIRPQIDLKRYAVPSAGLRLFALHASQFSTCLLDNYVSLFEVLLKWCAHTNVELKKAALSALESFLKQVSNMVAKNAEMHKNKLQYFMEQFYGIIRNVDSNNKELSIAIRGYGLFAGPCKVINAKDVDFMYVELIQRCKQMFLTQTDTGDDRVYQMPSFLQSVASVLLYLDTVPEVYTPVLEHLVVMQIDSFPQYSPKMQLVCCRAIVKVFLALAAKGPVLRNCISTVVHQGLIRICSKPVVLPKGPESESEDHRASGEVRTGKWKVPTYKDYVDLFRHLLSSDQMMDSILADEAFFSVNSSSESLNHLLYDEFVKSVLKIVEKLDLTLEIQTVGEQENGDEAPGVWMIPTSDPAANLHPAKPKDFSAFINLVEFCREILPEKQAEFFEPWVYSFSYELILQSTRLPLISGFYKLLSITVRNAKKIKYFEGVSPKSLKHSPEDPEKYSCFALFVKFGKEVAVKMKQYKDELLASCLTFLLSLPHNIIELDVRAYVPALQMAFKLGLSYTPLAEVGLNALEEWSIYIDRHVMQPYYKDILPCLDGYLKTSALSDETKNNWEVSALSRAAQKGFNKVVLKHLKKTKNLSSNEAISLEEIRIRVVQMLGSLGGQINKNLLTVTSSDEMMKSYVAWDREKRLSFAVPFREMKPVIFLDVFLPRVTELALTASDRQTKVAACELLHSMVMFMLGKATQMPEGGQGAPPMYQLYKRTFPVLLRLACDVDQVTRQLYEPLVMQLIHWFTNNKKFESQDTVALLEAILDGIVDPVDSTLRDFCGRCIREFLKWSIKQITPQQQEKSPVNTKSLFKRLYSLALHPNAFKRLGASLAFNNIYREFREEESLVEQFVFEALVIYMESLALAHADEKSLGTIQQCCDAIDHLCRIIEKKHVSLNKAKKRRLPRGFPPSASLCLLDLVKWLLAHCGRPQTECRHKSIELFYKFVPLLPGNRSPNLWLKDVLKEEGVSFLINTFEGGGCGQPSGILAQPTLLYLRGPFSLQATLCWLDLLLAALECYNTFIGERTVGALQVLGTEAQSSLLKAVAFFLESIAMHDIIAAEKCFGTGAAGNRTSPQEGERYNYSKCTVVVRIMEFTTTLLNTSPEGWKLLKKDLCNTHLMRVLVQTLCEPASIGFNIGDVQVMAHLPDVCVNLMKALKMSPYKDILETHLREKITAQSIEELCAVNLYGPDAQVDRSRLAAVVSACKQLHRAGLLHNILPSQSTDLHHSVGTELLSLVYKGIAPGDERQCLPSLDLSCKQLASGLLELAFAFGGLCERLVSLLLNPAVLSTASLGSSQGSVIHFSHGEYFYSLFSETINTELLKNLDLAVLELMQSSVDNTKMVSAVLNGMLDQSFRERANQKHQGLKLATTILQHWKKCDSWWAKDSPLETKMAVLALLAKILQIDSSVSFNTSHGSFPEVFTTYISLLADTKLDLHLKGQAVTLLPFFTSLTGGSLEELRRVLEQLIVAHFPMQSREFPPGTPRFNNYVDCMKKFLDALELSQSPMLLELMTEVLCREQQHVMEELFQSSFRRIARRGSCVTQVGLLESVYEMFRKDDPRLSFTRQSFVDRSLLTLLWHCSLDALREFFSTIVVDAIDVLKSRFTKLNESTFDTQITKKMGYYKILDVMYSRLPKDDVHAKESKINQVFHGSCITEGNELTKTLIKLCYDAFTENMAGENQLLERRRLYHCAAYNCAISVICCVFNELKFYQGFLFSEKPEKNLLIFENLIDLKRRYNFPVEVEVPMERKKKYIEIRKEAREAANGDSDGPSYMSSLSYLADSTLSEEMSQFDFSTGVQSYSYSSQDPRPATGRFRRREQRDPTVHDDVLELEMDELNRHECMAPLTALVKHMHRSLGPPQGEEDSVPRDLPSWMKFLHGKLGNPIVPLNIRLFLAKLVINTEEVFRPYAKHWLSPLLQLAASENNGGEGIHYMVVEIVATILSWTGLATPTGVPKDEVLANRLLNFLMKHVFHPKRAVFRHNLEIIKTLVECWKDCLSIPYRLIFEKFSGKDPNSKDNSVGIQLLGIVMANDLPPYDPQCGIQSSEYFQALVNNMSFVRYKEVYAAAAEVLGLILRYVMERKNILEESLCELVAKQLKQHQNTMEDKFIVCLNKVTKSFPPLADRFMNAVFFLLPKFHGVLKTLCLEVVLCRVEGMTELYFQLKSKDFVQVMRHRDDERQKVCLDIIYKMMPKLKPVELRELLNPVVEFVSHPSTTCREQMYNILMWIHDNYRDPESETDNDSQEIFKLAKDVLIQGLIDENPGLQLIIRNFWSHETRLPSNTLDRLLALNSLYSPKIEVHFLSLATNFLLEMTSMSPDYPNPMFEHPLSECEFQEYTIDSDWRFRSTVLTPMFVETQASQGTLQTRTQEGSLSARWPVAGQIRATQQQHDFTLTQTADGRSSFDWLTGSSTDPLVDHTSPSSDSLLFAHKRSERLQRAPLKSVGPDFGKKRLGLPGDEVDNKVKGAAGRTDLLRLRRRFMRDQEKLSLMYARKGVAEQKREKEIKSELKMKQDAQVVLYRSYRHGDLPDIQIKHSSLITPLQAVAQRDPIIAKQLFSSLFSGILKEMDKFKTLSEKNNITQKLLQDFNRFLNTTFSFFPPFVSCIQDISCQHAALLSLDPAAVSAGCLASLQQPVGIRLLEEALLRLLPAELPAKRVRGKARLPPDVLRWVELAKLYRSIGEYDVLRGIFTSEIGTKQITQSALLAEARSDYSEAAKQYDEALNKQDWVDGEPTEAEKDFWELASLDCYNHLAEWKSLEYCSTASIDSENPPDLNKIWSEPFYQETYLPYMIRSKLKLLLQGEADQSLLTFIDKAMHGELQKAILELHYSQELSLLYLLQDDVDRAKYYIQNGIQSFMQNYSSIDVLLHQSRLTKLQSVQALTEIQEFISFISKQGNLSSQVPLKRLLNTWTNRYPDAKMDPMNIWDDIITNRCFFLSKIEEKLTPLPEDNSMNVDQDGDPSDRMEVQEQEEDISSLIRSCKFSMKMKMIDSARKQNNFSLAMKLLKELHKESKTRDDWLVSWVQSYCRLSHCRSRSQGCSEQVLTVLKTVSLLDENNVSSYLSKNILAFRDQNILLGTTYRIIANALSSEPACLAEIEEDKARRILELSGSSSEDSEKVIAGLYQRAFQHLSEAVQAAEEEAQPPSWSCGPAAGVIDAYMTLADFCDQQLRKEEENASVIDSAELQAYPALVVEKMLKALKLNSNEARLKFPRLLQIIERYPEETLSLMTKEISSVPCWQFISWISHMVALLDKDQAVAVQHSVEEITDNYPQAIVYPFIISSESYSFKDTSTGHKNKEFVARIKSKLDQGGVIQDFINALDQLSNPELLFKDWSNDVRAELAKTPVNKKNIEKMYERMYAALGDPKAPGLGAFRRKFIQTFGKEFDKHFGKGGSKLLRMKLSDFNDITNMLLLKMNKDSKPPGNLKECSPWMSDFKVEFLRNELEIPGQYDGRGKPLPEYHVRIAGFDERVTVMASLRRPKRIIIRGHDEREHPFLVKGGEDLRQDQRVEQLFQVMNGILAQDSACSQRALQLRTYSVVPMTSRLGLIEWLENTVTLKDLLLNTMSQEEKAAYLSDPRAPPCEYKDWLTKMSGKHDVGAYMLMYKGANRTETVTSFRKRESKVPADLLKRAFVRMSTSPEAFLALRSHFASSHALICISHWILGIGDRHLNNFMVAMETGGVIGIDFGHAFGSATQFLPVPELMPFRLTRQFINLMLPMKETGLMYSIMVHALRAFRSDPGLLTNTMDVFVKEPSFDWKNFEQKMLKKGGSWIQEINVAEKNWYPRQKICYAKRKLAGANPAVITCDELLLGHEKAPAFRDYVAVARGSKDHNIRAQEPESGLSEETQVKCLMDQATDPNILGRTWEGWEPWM
Briefly: kinobeads assay, DNA-PK. The class given is binding. Conditions: Jurkat cell lysate, read-out: Inhibition values (IC50) DNA-PK. The method, boiled down:
as §1

For assay [2], the system named is S6RP serine-240/244 phosphorylation. Briefly: In vitro phospho-S6 cellular assay (HEK293T/17). Type of assay: cell-based. The following applies: Homo sapiens; HEK293T/17 cells, 2 hours, pS6RP Ser240/244; read-out: Inhibition values (IC50) pS6. The method, boiled down:
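HEK293T/17 cells in DMEM with 2% FCS were exposed to 8 compound concentrations (0.1% DMSO) for 2 h at 37 °C, then lysed. pS6RP Ser240/244 or pAkt Ser473 in the lysates was quantified by MSD sandwich electrochemiluminescence. IC50 was obtained by sigmoidal variable-slope nonlinear regression.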

In assay [3] the test system is Akt serine-473 phosphorylation. Description: In vitro phospho-Akt cellular assay (HEK293T/17). The class given is cell-based. Conditions: Homo sapiens; HEK293T/17 cells, 2 hours, pAkt Ser 473; read-out: Inhibition values (IC50) pAkt. An excerpt:
Activation of mTOR signaling results in phosphorylation of several downstream targets. In cells, mTOR exists in two different protein complexes. The mTOR Complex-1 (mTORC1) phosphorylates and activates S6 Kinase 1 (S6K1) and S6 Kinase 2 (S6K2) (also known as p70S6K) which then phosphorylate S6 Ribosomal Protein (S6RP) (also known as RPS6)3. S6RP is phosphorylated on serine 235, senile 236, serine 240 and serine 244 by both pS6K1 and pS6K2. The mTOR Complex-2 (mTORC2) phosphorylates AKT on serine 473 which activates the AKT signaling pathway.
The assay measures a test compound's inhibition of S6RP serine-240/244 phosphorylation and inhibition of Akt serine-473 phosphorylation in human embryonic kidney derived HEK293T/17 cells (ATCC CRL-11268).
The HEK293T/17 cell line is maintained in DMEM media (Invitrogen catalogue number 41965-039) supplemented with 10% FCS at 37° C. in a 5% CO2 humidified incubator. Cells are seeded in 96-well plates at 40,000 cells/well (pS6RP S240/244 assay) or 80,000 cells/well (pAkt 5473 assay) in 90 μl growth media (DMEM, 2% FCS). Plates are incubated for 1 hour in a humidified incubator to allow the cells to adhere. Cells are treated with 8 concentrations of test compounds or DMSO alone for controls (final DMSO concentration 0.1%) and incubated at 37° C. for 2 hours. Then 20 μl of 5× concentrated lysis buffer (750 mM NaCl, 100 mM Tris pH7.4, 5 mM ADTA, 5 mM EGTA, 5% Triton X-100) is added, plates are sealed and incubated for 15 minutes at 4° C. with gentle shaking After cell lysis, 25 μl cell lysate is transferred to a MesoScale plate coated with an antibody to pS6RP Ser240/244 (MesoScale Discovery K150DGD-3) or an antibody to pAkt Ser 473 (MesoScale Discovery K151DGD-3). Plates have been blocked before by incubation with 150 μl MesoScale Discovery Blocking Solution-A for 1 hour at room temperature followed by washing with 150 μl 1×Tris wash buffer per well. After the transfer of the cell lysate to the MSD plate, the pS6RP (or pAkt) protein is captured on the coated antibody by incubation at room temperature for 1 hour with gentle shaking. After the capture step the plate is washed three times with 150 μl of 1× Tris wash buffer per well. Then 25 μl detection antibody conjugated with a Sulfo-Tag is added and incubated for 1 hour at room temperature with gentle shaking. Subsequently the antibody solution is removed and the plate is washed 3 times with 150 μl 1×Tris wash buffer per well and 150 μl Read buffer is added. The plates are analysed on a MSD 2400 Plate Reader (MesoScale Discovery). Data analysis is performed using nonlinear regression for a sigmoidal dose-response with a variable slope.

Consider `C[C@H]1COCCN1c1nc(-c2ccc(NC(=O)NC3CC3)cc2)nc(-c2ccccc2S(C)(=O)=O)n1` [Example 1, (S)-1-cyclopropyl-3-(4-(4-(3-methylmorpholino)-6-(2-(methylsulfonyl)phenyl)-1,3,5-triazin-2-yl)phenyl)urea], for which the IC50 at mTOR was under 0.1 µM; on PI3K alpha (PI3Kα), over 10 µM; at PI3K beta (PI3Kb), over 10 µM; on PI3K gamma (PI3Kg) it was over 10 µM; at PI3K delta (PI3Kd), over 10 µM; in assay [1], over 10 µM. In addition, the IC50 in assay [2] and in assay [3] was under 0.1 µM throughout.

On to `C[C@H]1COCCN1c1nc(-c2ccc(NC(=O)NC3CC3)cc2)nc(-c2cc(F)ccc2S(C)(=O)=O)n1` [Example 5, (S)-1-cyclopropyl-3-(4-(4-(5-fluoro-2-(methylsulfonyl)phenyl)-6-(3-methylmorpholino)-1,3,5-triazin-2-yl)phenyl)urea], for which the IC50 was 0.1 to 1 µM on mTOR; over 10 µM on PI3K alpha (PI3Kα); over 10 µM at PI3K beta (PI3Kb); over 10 µM at PI3K gamma (PI3Kg); over 10 µM at PI3K delta (PI3Kd); over 10 µM in assay [1]. The IC50 in assay [2] and in assay [3] was under 0.1 µM in each case.

For the compound `C[C@H]1COCCN1c1nc(-c2ccc(NC(=O)NCCF)cc2)nc(-c2ccccc2S(C)(=O)=O)n1` [Example 7, (S)-1-(2-fluoroethyl)-3-(4-(4-(3-methylmorpholino)-6-(2-(methylsulfonyl)phenyl)-1,3,5-triazin-2-yl)phenyl)urea], the half-inhibitory concentration (IC50) was under 0.1 µM at mTOR; over 10 µM on PI3K alpha (PI3Kα); over 10 µM on PI3K beta (PI3Kb); over 10 µM at PI3K gamma (PI3Kg); over 10 µM on PI3K delta (PI3Kd); over 10 µM in assay [1]. In addition, the IC50 in assay [2] and in assay [3] was under 0.1 µM in each case.

Regarding `C[C@H]1COCCN1c1nc(-c2ccc(NC(=O)NCCO)cc2)nc(-c2ccccc2S(C)(=O)=O)n1` [Example 4, (S)-1-(2-hydroxyethyl)-3-(4-(4-(3-methylmorpholino)-6-(2-(methylsulfonyl)phenyl)-1,3,5-triazin-2-yl)phenyl)urea], the IC50 at mTOR is under 0.1 µM; at PI3K alpha (PI3Kα), over 10 µM; at PI3K beta (PI3Kb) it was over 10 µM; on PI3K gamma (PI3Kg) it was over 10 µM; on PI3K delta (PI3Kd), over 10 µM; in assay [1], over 10 µM. Moreover, the IC50 in assay [2] and in assay [3] was under 0.1 µM each time.

`CCNC(=O)Nc1ccc(-c2nc(-c3ccccc3S(C)(=O)=O)nc(N3CCOC[C@@H]3C)n2)cc1` [Example 10, (S)-1-ethyl-3-(4-(4-(3-methylmorpholino)-6-(2-(methylsulfonyl)phenyl)-1,3,5-triazin-2-yl)phenyl)urea]: the IC50 on mTOR was under 0.1 µM; on PI3K alpha (PI3Kα) it was over 10 µM; on PI3K beta (PI3Kb) it was over 10 µM; on PI3K gamma (PI3Kg), over 10 µM; on PI3K delta (PI3Kd), over 10 µM; in assay [1], over 10 µM. Besides, the IC50 in assay [2] and in assay [3] was under 0.1 µM each time.

For `CNC(=O)Nc1ccc(-c2nc(-c3ccccc3S(C)(=O)=O)nc(N3CCOC[C@@H]3C)n2)cc1` [Example 14, (S)-1-methyl-3-(4-(4-(3-methylmorpholino)-6-(2-(methylsulfonyl)phenyl)-1,3,5-triazin-2-yl)phenyl)urea], the IC50 was 0.1 to 1 µM at mTOR; over 10 µM on PI3K alpha (PI3Kα); over 10 µM on PI3K beta (PI3Kb); over 10 µM at PI3K gamma (PI3Kg); over 10 µM at PI3K delta (PI3Kd); over 10 µM in assay [1]. In addition, the IC50 in assay [2] and in assay [3] was under 0.1 µM in each case.

Take `C[C@H]1COCCN1c1nc(-c2ccc(NC(=O)NC3CC3)cc2)nc(-c2cccnc2S(C)(=O)=O)n1` [Example 24, (S)-1-cyclopropyl-3-(4-(4-(3-methylmorpholino)-6-(2-(methylsulfonyl)pyridin-3-yl)-1,3,5-triazin-2-yl)phenyl)urea]: the IC50 is under 0.1 µM at mTOR; over 10 µM at PI3K alpha (PI3Kα); 1 to 10 µM on PI3K beta (PI3Kb); over 10 µM at PI3K gamma (PI3Kg); 1 to 10 µM at PI3K delta (PI3Kd); over 10 µM in assay [1]. Moreover, the IC50 in assay [2] and in assay [3] was under 0.1 µM in each case.

Values taken from patent publication US9175011B2, “Morpholino substituted urea or carbamate derivatives as MTOR inhibitors” (CELLZOME LIMITED, priority 2011, dated 2015).
